In US9115133B2, “Substituted fused tricyclic compounds, compositions and medicinal applications thereof” (Advinus Therapeutics Limited, priority 2011, dated 2015):

What was measured:
Type in all cases: biochemical
Conditions in all cases: 200 μg/ml Poly Glu-Tyr (4:1), ATP 1 uM, 90 min room temperature, luminescence
[1] = biological target: T1, Recombinant JAK1 (Amino acids 850-1154) (Homo sapiens, UniProt P23458); experiment: Kinase-Glo Luminescent Kinase Assay, recombinant JAK1
T1 construct: Recombinant JAK1 (Amino acids 850-1154; NM_002227.2); made in house; host or cells: baculovirus expression system (Bac-to-Bac)
Method in brief: (§1)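 Baculovirus-expressed kinase domains were pre-incubated 5 min with compound (1% DMSO), then reacted 90 min at room temperature with 200 μg/ml poly Glu-Tyr (4:1) and 1 uM ATP in 50 mM HEPES pH 7.4, 5 mM MgCl2. Remaining ATP was read by Kinase-Glo luminescence. IC50 came from four-parameter logistic fits.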

[2] = biological target: T2, Recombinant JAK2 (Amino acids 808-1132) (Homo sapiens, UniProt O60674); experiment: Kinase-Glo Luminescent Kinase Assay, recombinant JAK2
T2 construct: JAK2 (Amino acids 808-1132; NM_004972.3); made in house; host or cells: baculovirus expression system (Bac-to-Bac)
Method in brief: as §1

[3] = biological target: T3, Recombinant JAK3 (Amino acids 781-1124) (Homo sapiens, UniProt P52333); experiment: Kinase-Glo Luminescent Kinase Assay, recombinant JAK3
T3 construct: JAK3 (Amino acids 781-1124; NM_000215.3); made in house; host or cells: baculovirus expression system (Bac-to-Bac)
Method in brief: as §1

T1 sequence (P23458 850-1154): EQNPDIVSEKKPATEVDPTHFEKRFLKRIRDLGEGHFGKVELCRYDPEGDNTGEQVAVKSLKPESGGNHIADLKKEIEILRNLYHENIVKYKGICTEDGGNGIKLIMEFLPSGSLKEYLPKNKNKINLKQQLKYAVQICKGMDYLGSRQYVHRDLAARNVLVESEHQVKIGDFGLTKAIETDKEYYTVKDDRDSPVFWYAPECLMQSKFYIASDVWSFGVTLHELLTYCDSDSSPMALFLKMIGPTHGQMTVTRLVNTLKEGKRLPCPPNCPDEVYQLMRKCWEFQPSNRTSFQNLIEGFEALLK
T3 sequence (P52333 781-1124): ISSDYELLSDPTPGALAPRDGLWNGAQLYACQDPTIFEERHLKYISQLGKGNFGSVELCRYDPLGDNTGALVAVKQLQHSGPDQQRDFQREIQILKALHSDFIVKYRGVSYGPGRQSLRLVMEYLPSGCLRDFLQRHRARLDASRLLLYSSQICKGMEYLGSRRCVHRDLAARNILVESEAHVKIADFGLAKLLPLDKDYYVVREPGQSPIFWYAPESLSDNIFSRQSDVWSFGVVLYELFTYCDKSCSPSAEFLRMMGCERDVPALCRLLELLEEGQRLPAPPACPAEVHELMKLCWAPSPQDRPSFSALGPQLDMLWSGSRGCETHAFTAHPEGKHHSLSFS
T2 sequence (O60674 808-1132): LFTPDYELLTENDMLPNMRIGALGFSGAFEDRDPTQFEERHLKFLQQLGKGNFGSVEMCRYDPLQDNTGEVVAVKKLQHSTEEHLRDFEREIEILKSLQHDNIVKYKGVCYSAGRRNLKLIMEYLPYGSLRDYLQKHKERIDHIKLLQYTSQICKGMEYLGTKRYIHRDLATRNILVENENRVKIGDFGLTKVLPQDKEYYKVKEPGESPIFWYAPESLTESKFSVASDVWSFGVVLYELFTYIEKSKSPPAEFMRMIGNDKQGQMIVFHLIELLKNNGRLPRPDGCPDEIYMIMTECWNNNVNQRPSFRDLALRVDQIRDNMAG

Compound | IC50 [1] [nM] | IC50 [2] [nM] | IC50 [3] [nM]
O=C(NC1CCCN(c2ccnc3cnc4[nH]ccc4c23)C1)C1CC1 (stereo not drawn) [Ex. 74, N-[1-(3H-pyrrolo[3,2-f][1,7]naphthyridin-9-yl)-3-piperidyl] cyclopropanecarbox-amide] | > 20 | > 20 | > 20
O=C(NC1CC1)C1CCN(c2ccnc3cnc4[nH]ccc4c23)C1 (stereo not drawn) [Ex. 85, N-cyclopropyl-1-(3H-pyrrolo[3,2-f][1,7]naphthyridin-9-yl)pyrrolidine-3-carboxamide] | > 20 | > 20 | > 20
O=C(CC(F)(F)F)NC1CCCN(c2ccnc3cnc4[nH]ccc4c23)C1 (stereo not drawn) [Ex. 87, 3,3,3-trifluoro-N-[1-(3H-pyrrolo[3,2-f][1,7]naphthyridin-9-yl)-3-piperidyl] propanamide] | > 20 | 1 to 20 | > 20
N#CCC(=O)N1CCN(c2ccnc3cnc4[nH]ccc4c23)CC1 [Ex. 102, 3-oxo-3-[4-(3H-pyrrolo[3,2-f][1,7]naphthyridin-9-yl)piperazin-1-yl]propanenitrile] | > 20 | > 20 | > 20

Now from value to compound:

IC50 [1] [nM] | IC50 [2] [nM] | IC50 [3] [nM] | Compound
> 20 | > 20 | > 20 | CCNC(=O)C1CCCN(c2ccnc3cnc4[nH]ccc4c23)C1 (stereo not drawn) [Ex. 72, N-ethyl-1-(3H-pyrrolo[3,2-f][1,7]naphthyridin-9-yl)piperidine-3-carboxamide]
1 to 20 | 1 to 20 | 1 to 20 | O=S(=O)(NC1CCCN(c2ccnc3cnc4[nH]ccc4c23)C1)C(F)(F)F (stereo not drawn) [Ex. 81, 1,1,1-trifluoro-N-[1-(3H-pyrrolo[3,2-f][1,7]naphthyridin-9-yl)-3-piperidyl]methane sulfonamide]
1 to 20 | 1 to 20 | 1 to 20 | O=C(NCC(F)(F)F)C1CCCN(c2ccnc3cnc4[nH]ccc4c23)C1 (stereo not drawn) [Ex. 83, 1-(3H-pyrrolo[3,2-f][1,7]naphthyridin-9-yl)-N-(2,2,2-trifluoroethyl)piperidine-3-carboxamide]
1 to 20 | > 20 | > 20 | CC(C)NC(=O)C1CCN(c2ccnc3cnc4[nH]ccc4c23)C1 (stereo not drawn) [Ex. 84, N-isopropyl-1-(3H-pyrrolo[3,2-f][1,7]naphthyridin-9-yl)pyrrolidine-3-carboxamide]
1 to 20 | > 20 | > 20 | N#CCS(=O)(=O)N1CCN(c2ccnc3cnc4[nH]ccc4c23)CC1 [Ex. 105, 2-[4-(3H-pyrrolo[3,2-f][1,7]naphthyridin-9-yl)piperazin-1-yl]sulfonylacetonitrile]
